The values that follow come from publication doi:10.64898/2025.12.13.694138, “Structural insights into xyloglucan recognition by an ABC transporter from a Gram-positive, thermophilic bacterium” (bioRxiv, 2025).

Read-outs that look alike come from different tables or passages of the source.

As a reminder, the Kd is the free concentration of one partner at which half of the binding sites on the other are occupied at equilibrium, for simple one-to-one binding. Read a high Kd as weaker binding.

Common to all, as to assay: ITC ([…] °C); DSC ΔTm […] °C
Holding throughout (assay type): binding

The target of experiment [1] is T1, Athe_2052 (Caldicellulosiruptor bescii, UniProt B9MLD9).
T1 construct: Athe_2052 without its signal peptide, N-terminal hexa-histidine tag
T1 sequence (B9MLD9 entry or part of it): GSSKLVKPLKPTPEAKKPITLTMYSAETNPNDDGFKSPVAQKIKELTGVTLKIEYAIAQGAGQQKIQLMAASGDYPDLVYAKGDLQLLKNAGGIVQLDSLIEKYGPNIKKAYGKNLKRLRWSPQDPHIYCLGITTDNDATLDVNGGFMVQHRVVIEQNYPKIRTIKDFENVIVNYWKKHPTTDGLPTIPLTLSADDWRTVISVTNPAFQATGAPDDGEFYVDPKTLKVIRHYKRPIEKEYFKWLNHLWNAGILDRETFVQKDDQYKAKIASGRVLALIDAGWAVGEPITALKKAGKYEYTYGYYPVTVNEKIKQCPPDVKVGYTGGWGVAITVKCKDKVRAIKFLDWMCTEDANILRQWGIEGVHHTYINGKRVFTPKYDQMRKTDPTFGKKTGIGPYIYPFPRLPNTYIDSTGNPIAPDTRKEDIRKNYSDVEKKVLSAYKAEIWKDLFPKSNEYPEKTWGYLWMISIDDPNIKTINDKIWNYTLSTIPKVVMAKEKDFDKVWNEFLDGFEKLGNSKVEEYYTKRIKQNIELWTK

Experiment [2] deals with T1, Athe_2052. This is another data set of the same source.
Experiment [3] deals with T1, Athe_2052. The source holds these as a separate data set.

Regarding `OC[C@H]1O[C@@H](O[C@H]2[C@H](O)[C@@H](O)[C@H](O[C@H]3[C@H](O)[C@@H](O)[C@H](O[C@H]4[C@H](O)[C@@H](O)C(O)O[C@@H]4CO)O[C@@H]3CO)O[C@@H]2CO)[C@H](O)[C@@H](O)[C@@H]1O` (stereo partly drawn) [Cellotetraose], binding on Athe_2052 [1] was characterised by a dissociation constant (Kd) of 214 nM.
Turning to `OC[C@H]1O[C@@H](O[C@H]2[C@H](O)[C@@H](O)[C@H](O[C@H]3[C@H](O)[C@@H](O)C(O)O[C@@H]3CO)O[C@@H]2CO)[C@H](O)[C@@H](O)[C@@H]1O` (stereo partly drawn) [Cellotriose], the Kd at Athe_2052 [2] was 247 nM.
Consider `OC[C@H]1OC(O)[C@H](O)[C@@H](O)[C@@H]1O[C@@H]1O[C@H](CO[C@H]2OC[C@@H](O)[C@H](O)[C@H]2O)[C@@H](O[C@@H]2O[C@H](CO[C@H]3OC[C@@H](O)[C@H](O)[C@H]3O)[C@@H](O[C@@H]3O[C@H](CO[C@H]4OC[C@@H](O)[C@H](O)[C@H]4O)[C@@H](O)[C@H](O)[C@H]3O)[C@H](O)[C@H]2O)[C@H](O)[C@H]1O` (stereo partly drawn) [XXXG, xyloglucan heptasaccharide], for which the dissociation constant Kd on Athe_2052 [3] worked out at 14 nM.
